Experimental data: publication PMC11188740, “A small molecule that inhibits the evolution of antibiotic resistance” (NAR Molecular Medicine, 2024)

Legend:
Mfd [1] = molecular target: T1, Mfd (Escherichia coli, UniProt P30958); assay: microscale thermophoresis (His-tag labeled Mfd); also RNAP displacement assay with purified Mfd; type: binding
T1 construct: purified His-tagged E. coli Mfd (expressed from pCA24N-Mfd)

Mfd [2] = molecular target: T1, Mfd; assay: NADH-coupled ATPase assay, Michaelis–Menten Km without ARM-1; type: biochemical
Excerpt: NADH-coupled ATPase assay, Michaelis–Menten Km without ARM-1 on Mfd | Kinetic constants of Mfd ATPase activity determined using Michaelis–Menten modeling

T1 sequence (P30958 whole entry): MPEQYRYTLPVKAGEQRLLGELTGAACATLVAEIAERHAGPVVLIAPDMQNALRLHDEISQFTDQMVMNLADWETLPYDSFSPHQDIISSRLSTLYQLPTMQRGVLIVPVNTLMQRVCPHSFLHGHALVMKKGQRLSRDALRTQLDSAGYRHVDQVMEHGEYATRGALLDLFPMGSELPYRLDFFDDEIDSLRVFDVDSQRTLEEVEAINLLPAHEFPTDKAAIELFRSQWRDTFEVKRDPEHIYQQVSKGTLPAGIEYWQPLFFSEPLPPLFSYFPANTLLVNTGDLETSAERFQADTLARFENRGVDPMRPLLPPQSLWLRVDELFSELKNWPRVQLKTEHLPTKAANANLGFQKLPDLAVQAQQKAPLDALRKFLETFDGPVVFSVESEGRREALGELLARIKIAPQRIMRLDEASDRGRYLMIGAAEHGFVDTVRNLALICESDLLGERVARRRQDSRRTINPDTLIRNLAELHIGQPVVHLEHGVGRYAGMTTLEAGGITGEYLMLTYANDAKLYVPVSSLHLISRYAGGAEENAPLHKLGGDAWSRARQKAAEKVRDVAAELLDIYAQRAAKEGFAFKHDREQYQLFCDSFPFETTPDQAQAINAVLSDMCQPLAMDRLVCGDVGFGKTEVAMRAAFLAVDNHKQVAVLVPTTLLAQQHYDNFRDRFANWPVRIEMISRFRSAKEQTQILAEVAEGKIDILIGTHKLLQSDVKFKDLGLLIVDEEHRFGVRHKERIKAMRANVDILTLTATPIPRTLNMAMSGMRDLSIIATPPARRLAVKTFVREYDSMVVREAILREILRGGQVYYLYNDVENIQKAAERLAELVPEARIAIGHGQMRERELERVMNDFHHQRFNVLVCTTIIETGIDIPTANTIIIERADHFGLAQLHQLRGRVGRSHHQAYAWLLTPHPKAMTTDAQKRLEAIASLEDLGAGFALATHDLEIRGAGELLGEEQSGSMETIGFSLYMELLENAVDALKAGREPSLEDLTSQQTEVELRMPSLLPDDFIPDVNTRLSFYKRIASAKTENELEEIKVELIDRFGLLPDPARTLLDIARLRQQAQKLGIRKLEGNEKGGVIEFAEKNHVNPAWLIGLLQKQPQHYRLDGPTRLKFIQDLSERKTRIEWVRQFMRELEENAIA

Compound | Kd (Mfd [1]) | K m / Mean (Mfd [2])
Cc1cc(Br)ccc1-c1ccc(CNCCCN(C)C)o1 [ARM-1] | 4.25 µM | –
Nc1ncnc2c1ncn2[C@@H]1O[C@H](COP(=O)(O)OP(=O)(O)OP(=O)(O)O)[C@@H](O)[C@H]1O [ATP] | – | 0.954
